Source: US20060252714A1, “Pharmaceutical compositions and methods for treating multidrug resistant cancer” (priority 2003, published 2006)
Structures can show the parent of a compound that is named as a salt. Where two headings read alike, the source gives them in different places.

Legend:
[1] = cited from earlier work; for Toxicity: at the toxic dose range of the same line
[2] = test system: MCF-7/adr cells; assay: Breast cancer clonogenic assay, MCF-7/adr; assay type: cell-based, Human; details: for IC90: Homo sapiens, NCI/ADR-RES, absence of ketotifen, read-out: IC90 of cytotoxic drugs on MCF-7/adr, −ke
Description: MCF-7/adr cells were treated with different concentrations of reversal compounds with or without 2 μM doxorubicin for 24 hours. Cells were harvested, and plated for growth of breast cancer colonies in triplicates. […] DXN: doxorubicin.
FIG. 2 Influence of 10 μM of ketotifen on the toxicities of four cytotoxic drugs. MCF-7/adr cells were treated with different concentrations of chemotherapeutic agents in the presence or absence of 10 μM ketotifen for 24 hours. Cells were harvested, washed and plated for growth of breast cancer colonies as described in the Materials and Methods. […] Ke: ketotifen.
The toxicity of the cytotoxic drugs was measured by clonogenicity assay.
(§1) MCF-7/mx and MCF-7/vp cell lines were also used. Other cell lines could also be used. […] The MCF-7/vp cell line was selected with etoposide and overexpresses Multidrug Resistance-associated Protein gene (MRP). All the cell lines were grown routinely as monolayer culture in Dulbecco's Minimal Essential Media (DME) supplemented with L-glutamine (2 mM), penicillin, streptomycin and 10% heat-inactivated fetal bovine serum SUBS, GIBCO) in an atmosphere of 5% CO2 at 37° C. The cell lines were passaged weekly.
(§2) Both adherent and non-adherent cells were collected and washed with fresh medium. Cell aliquots (5×10^3) were plated in 1 ml of 0.3% agar over 1 ml of 0.5% agar underlayer prepared in IMDM containing 10% horse serum (GIBCO). The upper layer consisted of 20% FBS, 10 μg/ml of bovine insulin, 2.5 mg/ml of hydrocortisone, 5×10^−7M of 17-b-estradiol (Sigma) and 50 ng/ml of EGF (R & D Systems).

[3] = test system: MCF-7/wt; assay: Breast cancer clonogenic assay, MCF-7/wt; assay type: cell-based; details: Homo sapiens, MCF7, 24 hours treatment, clonogenicity, read-out: IC90 of cytotoxic drugs on MCF-7/wt
Description: (§3) The toxicity of the cytotoxic drugs was measured by clonogenicity assay. […] Beginning at 1 μM, ketotifen restored doxorubicin toxicity while at 10 μM, the MDR phenotype of MCF-7/adr cells was completely reversed. Over this concentration range, ketotifen itself is non-toxic to MCP-7/adr cells. […] As summarized in Table 3, IC90 levels on MCF-7/adr cells in the presence of ketotifen are almost identical to those for parental MCF-7 cells. […] Thus, ketotifen is a specific reversing agent for MDR associated with P-gp.
as §1, with “MCF-7 (MCF-7/wt) and its multidrug resistant variant MCF-7/adr cells were used. MCF-7/mx” for “MCF-7/mx”
as §2, with “Exponentially growing MCF-7/wt and its three mutants MCF-7/adr, MCF-7/mx and MCF-7/vp were trypsinized, washed with fresh medium and plated in 6-well plates at a density of 1×10^5/ml. […] Both” for “Both”, “Systems). Colonies larger than 50 μm in size were scored after 14 days of incubation at 37° C. in a humidified atmosphere of 5% CO2 in air.” for “Systems).”

[4] = test system: MCF-7/adr cells; assay: Breast cancer clonogenic assay, MCF-7/adr; assay type: cell-based; details: Homo sapiens, NCI/ADR-RES, presence of 10 mM of ketotifen (so in the source), read-out: IC90 of cytotoxic drugs on MCF-7/adr, +ke
[5] = Modulation of doxorubicin toxicity: survival; details: doxorubicin 15 mg/kg i.p., alone or after labelled reversal agent 25 mg/kg i.p.
Text: Female Balb/c mice (8-10 weeks of age, 20-22 g of body weight) were purchased from Jackson Laboratory (Maine, USA). Protocols were approved by the Animal Care Committee of the University Health Network. […] All the treatments were administrated via i.p. After treatment, mice were kept in sterile environment for six to eight weeks. […] Three mice from each group were sacrificed on day 4-post treatment. Hearts were removed immediately and fixed in 10% neutral buffered formalin. Tissue sections were made from heart tissue and stained with hematoxylin and eosin or with 1% Toluidine blue to identify mast cells. All the slides were evaluated by light microscopy for cardiac damage, mast cell density and degranulation.
All the colony data were analyzed by two-way analysis of variance (ANOVA), with differences between individual means determined by Bonferroni's post-tests. Data were expressed as means ±SEM. The Kaplan-Meier estimate was used to determine differences in the survival periods for mice following different drug combination treatments.

[6] = test system: MCF-7/mx; assay: Breast cancer clonogenic assay, MCF-7/mx (BCRP overexpressing); assay type: cell-based, Human
Description: (§4) FIG. 3 Ketotifen fails to reverse MDR of MCF-7/mx and MCF-7/vp cell lines. MCF-7/mx and MCF-7/vp cell lines were treated and assayed as described in FIGS. 1 and 2. […] Ke: ketotifen.
as §3
(§5) MCF-7 (MCF-7/wt) and its multidrug resistant variant MCF-7/adr cells were used. MCF-7/mx and MCF-7/vp cell lines were also used. Other cell lines could also be used. […] The MCF-7/vp cell line was selected with etoposide and overexpresses Multidrug Resistance-associated Protein gene (MRP). […]
(§6) Exponentially growing MCF-7/wt and its three mutants MCF-7/adr, MCF-7/mx and MCF-7/vp were trypsinized, washed with fresh medium and plated in 6-well plates at a density of 1×10^5/ml. […] Colonies larger than 50 μm in size were scored after 14 days of incubation at 37° C. in a humidified atmosphere of 5% CO2 in air.

[7] = test system: MCF-7/vp cells; assay: Breast cancer clonogenic assay, MCF-7/vp (MRP overexpressing); assay type: cell-based, Human
Description: as §4, §3, §5, §6

[8] = test system: P388/adr murine leukemia cells; assay: p388 multi-drug resistant leukemia model; assay type: in vivo, Mice; details: ketotifen 75 mg/kg i.p. 30 minutes before doxorubicin 4 mg/kg i.p., once per week
[9] = target: P-gp (Homo sapiens, UniProt P08183); details: 2.5 h, 2 μM
P-gp, sequence (P08183 whole entry): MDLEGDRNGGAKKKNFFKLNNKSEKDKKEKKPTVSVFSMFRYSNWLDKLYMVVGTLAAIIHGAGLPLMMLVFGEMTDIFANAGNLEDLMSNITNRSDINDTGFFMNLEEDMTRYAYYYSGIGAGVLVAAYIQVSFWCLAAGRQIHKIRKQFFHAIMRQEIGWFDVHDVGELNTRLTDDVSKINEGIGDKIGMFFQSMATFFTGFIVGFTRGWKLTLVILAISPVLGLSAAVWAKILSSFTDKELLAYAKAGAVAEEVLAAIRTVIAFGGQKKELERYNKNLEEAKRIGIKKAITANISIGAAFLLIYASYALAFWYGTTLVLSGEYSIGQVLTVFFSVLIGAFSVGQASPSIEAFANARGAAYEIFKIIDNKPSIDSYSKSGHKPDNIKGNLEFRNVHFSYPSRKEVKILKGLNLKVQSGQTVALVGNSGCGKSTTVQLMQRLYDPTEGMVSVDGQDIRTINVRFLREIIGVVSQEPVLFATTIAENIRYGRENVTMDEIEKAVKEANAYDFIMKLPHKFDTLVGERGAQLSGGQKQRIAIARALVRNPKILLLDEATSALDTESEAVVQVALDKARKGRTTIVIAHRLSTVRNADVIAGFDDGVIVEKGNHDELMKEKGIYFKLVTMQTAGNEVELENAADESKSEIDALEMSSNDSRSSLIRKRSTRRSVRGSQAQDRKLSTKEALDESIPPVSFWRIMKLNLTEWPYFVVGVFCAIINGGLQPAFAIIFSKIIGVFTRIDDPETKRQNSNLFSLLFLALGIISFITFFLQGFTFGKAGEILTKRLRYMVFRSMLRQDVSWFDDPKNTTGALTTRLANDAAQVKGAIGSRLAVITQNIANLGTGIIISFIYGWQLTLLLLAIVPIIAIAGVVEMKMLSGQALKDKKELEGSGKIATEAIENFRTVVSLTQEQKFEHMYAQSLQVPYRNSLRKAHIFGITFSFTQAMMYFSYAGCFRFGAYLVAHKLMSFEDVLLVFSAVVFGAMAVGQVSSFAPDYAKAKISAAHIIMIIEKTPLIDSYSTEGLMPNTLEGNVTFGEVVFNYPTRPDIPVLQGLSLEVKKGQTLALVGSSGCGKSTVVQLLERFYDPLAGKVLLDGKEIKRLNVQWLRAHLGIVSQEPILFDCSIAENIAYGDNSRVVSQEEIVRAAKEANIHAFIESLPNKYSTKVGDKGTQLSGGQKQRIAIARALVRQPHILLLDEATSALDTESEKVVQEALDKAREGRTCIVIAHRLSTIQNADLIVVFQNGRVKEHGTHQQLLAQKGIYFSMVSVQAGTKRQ

[10] = with 2 μM doxorubicin, 24 hours

CC(=O)O[C@H]1C(=O)[C@@]2(C)[C@H]([C@H](OC(=O)c3ccccc3)[C@]3(O)C[C@H](OC(=O)[C@H](O)[C@@H](NC(=O)c4ccccc4)c4ccccc4)C(C)=C1C3(C)C)[C@]1(OC(C)=O)CO[C@@H]1C[C@@H]2O [Paclitaxel]
Toxicity [1]: Bradycardia

O=P1(N(CCCl)CCCl)NCCCO1 (centres unmarked) [Cyclophosphamide]
Toxic dose range ([1]; over 2 d, IV): >100 to 120 mg/kg

COc1cc([C@@H]2c3cc4c(cc3[C@@H](O[C@@H]3O[C@@H]5CO[C@@H](C)O[C@H]5[C@H](O)[C@H]3O)[C@H]3COC(=O)[C@H]23)OCO4)cc(OC)c1O [VP-16, etoposide]
IC90 [2]: 220 µM | IC90 [3]: 17000 nM | IC90 [4]: 20000 nM

COc1cccc2c1C(=O)c1c(O)c3c(c(O)c1C2=O)C[C@@](O)(C(=O)CO)C[C@@H]3O[C@H]1C[C@H](N)[C@H](O)[C@H](C)O1 [Doxorubicin, 8S,10S)-10-[(3-amino-2,3,6-trideoxy-a-L-lyxo-hexopyranosyl)oxy]-8-glycolyl-7,8,9,10-tetrahydro-6,8,11-trihydroxy-1-methoxy-5,12-naphthacenedione hydrochloride]
IC90 [2]: > 10 µM | IC90 [3]: 120 nM | median survival time [5]: 19.3 days | survival rate at day 30 [5]: 42% | IC90 [4]: 180 nM

COc1cccc2c1C(=O)c1c(O)c3c(c(O)c1C2=O)C[C@@](O)(C(C)=O)C[C@@H]3O[C@H]1C[C@H](N)[C@H](O)[C@H](C)O1 [Daunorubicin]
Toxicity [1]: Same toxocity as doxorubicin | Toxic dose range ([1]; total dose, IV): >550 mg/m^2

O=c1[nH]cc(F)c(=O)[nH]1 [Fluorouracil]
Toxicity [1]: Angina/myocardial infarction

CS(=O)(=O)OCCCCOS(C)(=O)=O [Bisulfan]
Toxic dose range ([1]; IV unless otherwise indicated): Oral daily dose | Toxicity [1]: Endocardial fibrosis

O=C1c2c(O)ccc(O)c2C(=O)c2c(NCCNCCO)ccc(NCCNCCO)c21 [Mitoxantrone]
IC90 [2]: 0.22 µM | IC90 [3]: 10 nM | IC90 [4]: 20 nM

CC[C@]1(O)C[C@H]2CN(CCc3c([nH]c4ccccc34)[C@@](C(=O)OC)(c3cc4c(cc3OC)N(C=O)[C@H]3[C@@](O)(C(=O)OC)[C@H](OC(C)=O)[C@]5(CC)C=CCN6CC[C@]43[C@@H]65)C2)C1 [Vincristine]
Toxic dose range ([1]; IV unless otherwise indicated): Conventional dose | Toxicity [1]: Myocardial Infarction

CC[C@]1(O)C[C@@H]2CN(CCc3c([nH]c4ccccc34)[C@@](C(=O)OC)(c3cc4c(cc3OC)N(C)[C@H]3[C@@](O)(C(=O)OC)[C@H](OC(C)=O)[C@]5(CC)C=CCN6CC[C@]43[C@@H]65)C2)C1 [Vinblastine]
IC90 [2]: 410 µM | IC90 [3]: 800 nM | IC90 [4]: 1200 nM

COc1ccc(CCN(C)CCCC(C#N)(c2ccc(OC)c(OC)c2)C(C)C)cc1OC (centres unmarked) [verapamil]
median survival time [5]: 12.3 days | survival rate at day 30 [5]: 0%

CN1CCC(=C2c3ccccc3CC(=O)c3sccc32)CC1.O=C(O)/C=C/C(=O)O [ketotifen, 4-(1-Methyl-4-piperidylidene)-4H-benzo[4,5]cyclohepta[1,2-b] thiophen-10(9H)-one hydrogen fumarate]
sensitivity to mitoxantrone, VP-16 and vinblastine ([2]; 10 μM ketotifen): restored | reversal of doxorubicin resistance ([2]; ketotifen compared with verapamil): reverse resistance at similar concentrations | toxicity of ketotifen itself ([2]; over 1 to 10 μM, without doxorubicin): non-toxic | ketotifen concentration at which MDR phenotype was completely reversed [2, 10]: 10 µM | ketotifen concentration from which doxorubicin toxicity is restored [2, 10]: ≥ 1 µM | influence on toxicity of mitoxantrone [6]: influenced neither | influence on toxicity of VP-16 [7]: influenced neither | median survival time [5]: 23.2 days | survival rate at day 30 [5]: 57% | extension of survival compared to doxorubicin alone [8]: 2 days | increase of doxorubicin relative fluorescence [9]: 50%

COc1cc(NS(C)(=O)=O)ccc1Nc1c2ccccc2nc2ccccc12 [Amsacrine]
Toxicity [1]: Ventricular arrhythmia

CO[C@@]12[C@H](COC(N)=O)C3=C(C(=O)C(C)=C(N)C3=O)N1C[C@@H]1N[C@@H]12 [Mitomycin]
Toxic dose range ([1]; IV unless otherwise indicated): Conventional dose
